Data published in publication PMC4992173, “Divergent synthesis and identification of the cellular targets of deoxyelephantopins” (Nature Communications, 2016).

Tested on: Caco-2 cells
Assay: In situ global proteomics profiling of Caco-2 cells (LC-MS/MS, LFQ)
Type: cell-based, human
Conditions: LFQ
Method: Figure 7 Identification of PPARγ as target of deoxyelephantopin and screening of DEP derivatives as PPARγ antagonists. (a) Quantification of endogenous PPARγ enriched from Caco-2 cells using 10 μM 24c following in situ treatment with DEP (20 μM) or DMSO (normalized LFQ values±s.d. are shown; n=6). (b) Changes in expression levels of five PPARγ-dependent proteins following 24 h treatment of Caco-2 cells with DMSO, rosiglitazone (10 μM), T0070907 (50 μM) or DEP (20 μM; LFQ ratios±s.d. are shown; n=3). **P<0.005 and ***P<0.0005 by two-sided Student's t-test. (c) Gel-based competitive screening of DEP and analogues as PPARγ antagonists against recombinant human enzyme (top). hPPARγ was treated with each compound (20 μM) for 1 h followed by treatment with 24c-Cy3 (10 μM) as probe. Quantification of fluorescence intensity in the competitive screening for PPARγ antagonists (bottom; values±s.d. are shown; n=3).
Caco-2 cells were treated with DMSO, PPARγ agonist rosiglitazone, antagonist T0070907 or DEP for 24 h, the cells were collected and the proteomes were comparatively analysed by LC–MS/MS. […] Furthermore, the list of 43 dysregulated proteins was analysed and classified using the GOrilla pathway analysis tool (Supplementary Fig. 15). […]
In situ global proteomics profiling using LC-MS/MS. Caco- ’ cells/mL) in a 6-well plate, allowed to grow to confluence and to differentiate for 28 days. The wells were washed one time with PBS and treated with either DMSO, 10 µM rosiglitazone, 50 µM T0070907 or 20 µM DEP for 24 hours. Cells were washed two times with PBS and lysates were prepared. Samples (30 µg) were denatured with 6 M urea in 50 mM NH4HCO3, reduced […]
dark. Samples were diluted to 2 M urea with 50 mM NH4HCO3, and digested with trypsin ([…] for 12 hours at 37 °C. Samples were acidified to a final concentration of 5% acetic acid, desalted over a self-packed C18 spin column and […]
dried. […]
LC-MS/MS analysis. Peptides were resuspended in water with 0.1% formic acid (FA) and analyzed using Proxeon EASY-nLC 1000 nano-UHPLC coupled to QExactive Plus Quadrupole-Orbitrap mass spectrometer (Thermo Scientific). The chromatography column […]
H2O (Buffer A) and 0.1% FA in MeCN (Buffer B). Peptides were eluted into the mass spectrometer at a flow rate of 300 nL/min. over a 240 min. linear gradient (3-35% Buffer B) at 50 °C. Data was acquired in data-dependent mode (top- N = ’ […]
and isotope exclusion was enabled.
MaxQuant analysis. The MS data was analyzed with MaxQuant (V1.5.2.8) and searched against the human proteome (Uniprot, 89,649 entries) and a common list of contaminants (included in MaxQuant). The first peptide search tolerance was set to 20 ppm, 10 ppm was used for the main peptide search and fragment mass tolerance was set to 0.02 Da. The false discovery rate for peptides, proteins and sites identification was set to 1%. The minimum peptide length was set to 6 amino acids and peptide re-quantification, label-free quantification (MaxLFQ) and “ ” were enabled. The minimal number of peptides per protein was set to two. Oxidized methionines and N-terminal acetylation were searched as variable modifications and carbamidomethylation of cysteines was searched as a fixed modification. For SILAC experiments 13C6 L-lysine and 13C6 15N4 L-arginine were set as heavy isotope labels and 12C6 L-lysine and 12C6 14N4 L-arginine as light isotope labels.
19 d k g h ARγ. 19a was covalently docked to the crystal structure of human γ ZU 190 using the GOLD suite (V5.3, CCDC). The default GOLD fitness function was used to determine the best binding configuration. The distance for hydrogen bonding was set to 3 Å.
IAA competition of 23c, 24c and DEP h ARγ. γ
(500 ng in 9 µL PBS) was treated with either 100 µM DEP, 23c, 24c or DMSO (1 µL of 10x stock in DMSO) for one hour. Samples were denatured with 6 M urea in 50 mM NH4HCO3, […]
in the dark. Samples were diluted to 2 M urea with 50 mM NH4HCO3, and digested with trypsin […]

## CN(CCOc1ccc(CC2SC(=O)NC2=O)cc1)c1ccccn1 (centres unmarked) [Rosiglitazone, rosiglitazone]
Protein ALDH3B1, 24 h
  Log2 10 µM Rosiglitazone/DMSO: -0.32
Protein ARHGAP17, 24 h
  Log2 10 µM Rosiglitazone/DMSO: 0.39
Protein ARMCX3, 24 h
  Log2 10 µM Rosiglitazone/DMSO: -0.36
Protein COL4A3BP, 24 h
  Log2 10 µM Rosiglitazone/DMSO: -0.06
Protein CROT, 24 h
  Log2 10 µM Rosiglitazone/DMSO: 0.034
Protein CTBP2, 24 h
  Log2 10 µM Rosiglitazone/DMSO: 0.36
Protein DDX21, 24 h
  Log2 10 µM Rosiglitazone/DMSO: 0.15
Protein FNTA, 24 h
  Log2 10 µM Rosiglitazone/DMSO: -0.12
Protein GID8, 24 h
  Log2 10 µM Rosiglitazone/DMSO: 0.46
Protein GIPC2, 24 h
  Log2 10 µM Rosiglitazone/DMSO: 0.0144
Protein GIT2, 24 h
  Log2 10 µM Rosiglitazone/DMSO: -0.38
Protein GSTA1, 24 h
  Log2 10 µM Rosiglitazone/DMSO: 0.21
Protein GSTA2, 24 h
  Log2 10 µM Rosiglitazone/DMSO: 0.20
Protein GSTM3, 24 h
  Log2 10 µM Rosiglitazone/DMSO: 0.30
Protein HIGD1A, 24 h
  Log2 10 µM Rosiglitazone/DMSO: 0.43
Protein IREB2, 24 h
  Log2 10 µM Rosiglitazone/DMSO: 0.26
Protein ITGB4, 24 h
  Log2 10 µM Rosiglitazone/DMSO: 0.08
Protein LDHD, 24 h
  Log2 10 µM Rosiglitazone/DMSO: -0.20
Protein LDLR, 24 h
  Log2 10 µM Rosiglitazone/DMSO: 0.49
Protein LIPA, 24 h
  Log2 10 µM Rosiglitazone/DMSO: 0.034
Protein MARCH5, 24 h
  Log2 10 µM Rosiglitazone/DMSO: 0.40
Protein MGMT, 24 h
  Log2 10 µM Rosiglitazone/DMSO: -0.17
Protein MYO15B, 24 h
  Log2 10 µM Rosiglitazone/DMSO: 0.08
Protein NOP9, 24 h
  Log2 10 µM Rosiglitazone/DMSO: 0.07
Protein OAS1, 24 h
  Log2 10 µM Rosiglitazone/DMSO: 0.0144
Protein OGDHL, 24 h
  Log2 10 µM Rosiglitazone/DMSO: 0.10
Protein PANK4, 24 h
  Log2 10 µM Rosiglitazone/DMSO: -0.34
Protein PHPT1, 24 h
  Log2 10 µM Rosiglitazone/DMSO: -0.36
Protein PSIP1, 24 h
  Log2 10 µM Rosiglitazone/DMSO: 0.49
Protein RAB5B, 24 h
  Log2 10 µM Rosiglitazone/DMSO: 0.49
Protein RBP4, 24 h
  Log2 10 µM Rosiglitazone/DMSO: 0.20
Protein RRS1, 24 h
  Log2 10 µM Rosiglitazone/DMSO: 0.50
Protein SAMHD1, 24 h
  Log2 10 µM Rosiglitazone/DMSO: -0.43
Protein SCAMP3, 24 h
  Log2 10 µM Rosiglitazone/DMSO: 0.45
Protein SETDB1, 24 h
  Log2 10 µM Rosiglitazone/DMSO: 0.08
Protein SLC26A3, 24 h
  Log2 10 µM Rosiglitazone/DMSO: 0.10
Protein SLC39A14, 24 h
  Log2 10 µM Rosiglitazone/DMSO: -0.49
Protein STK4, 24 h
  Log2 10 µM Rosiglitazone/DMSO: 0.36
Protein SURF6, 24 h
  Log2 10 µM Rosiglitazone/DMSO: 0.26
Protein TGOLN2, 24 h
  Log2 10 µM Rosiglitazone/DMSO: 0.28
Protein TPD52L1, 24 h
  Log2 10 µM Rosiglitazone/DMSO: -0.45
Protein TTR, 24 h
  Log2 10 µM Rosiglitazone/DMSO: 0.46
Protein VPS52, 24 h
  Log2 10 µM Rosiglitazone/DMSO: 0.42

## O=C(Nc1ccncc1)c1cc([N+](=O)[O-])ccc1Cl [T0070907]
Protein ALDH3B1, 24 h
  Log2 50 µM T0070907/DMSO: -0.79
Protein ARHGAP17, 24 h
  Log2 50 µM T0070907/DMSO: -0.81
Protein ARMCX3, 24 h
  Log2 50 µM T0070907/DMSO: -0.71
Protein COL4A3BP, 24 h
  Log2 50 µM T0070907/DMSO: -0.76
Protein CROT, 24 h
  Log2 50 µM T0070907/DMSO: -0.85
Protein CTBP2, 24 h
  Log2 50 µM T0070907/DMSO: 0.83
Protein DDX21, 24 h
  Log2 50 µM T0070907/DMSO: 0.92
Protein FNTA, 24 h
  Log2 50 µM T0070907/DMSO: -0.97
Protein GID8, 24 h
  Log2 50 µM T0070907/DMSO: 0.60
Protein GIPC2, 24 h
  Log2 50 µM T0070907/DMSO: -0.69
Protein GIT2, 24 h
  Log2 50 µM T0070907/DMSO: -0.89
Protein GSTA1, 24 h
  Log2 50 µM T0070907/DMSO: -0.76
Protein GSTA2, 24 h
  Log2 50 µM T0070907/DMSO: -0.80
Protein GSTM3, 24 h
  Log2 50 µM T0070907/DMSO: -0.71
Protein HIGD1A, 24 h
  Log2 50 µM T0070907/DMSO: 0.70
Protein IREB2, 24 h
  Log2 50 µM T0070907/DMSO: 0.96
Protein ITGB4, 24 h
  Log2 50 µM T0070907/DMSO: 1.36
Protein LDHD, 24 h
  Log2 50 µM T0070907/DMSO: -0.67
Protein LDLR, 24 h
  Log2 50 µM T0070907/DMSO: 1.99
Protein LIPA, 24 h
  Log2 50 µM T0070907/DMSO: -0.85
Protein MARCH5, 24 h
  Log2 50 µM T0070907/DMSO: 1.21
Protein MGMT, 24 h
  Log2 50 µM T0070907/DMSO: -0.69
Protein MYO15B, 24 h
  Log2 50 µM T0070907/DMSO: -0.74
Protein NOP9, 24 h
  Log2 50 µM T0070907/DMSO: 1.10
Protein OAS1, 24 h
  Log2 50 µM T0070907/DMSO: 0.92
Protein OGDHL, 24 h
  Log2 50 µM T0070907/DMSO: -1.02
Protein PANK4, 24 h
  Log2 50 µM T0070907/DMSO: -0.81
Protein PHPT1, 24 h
  Log2 50 µM T0070907/DMSO: -1.25
Protein PSIP1, 24 h
  Log2 50 µM T0070907/DMSO: 0.60
Protein RAB5B, 24 h
  Log2 50 µM T0070907/DMSO: 0.62
Protein RBP4, 24 h
  Log2 50 µM T0070907/DMSO: -0.37
Protein RRS1, 24 h
  Log2 50 µM T0070907/DMSO: 0.77
Protein SAMHD1, 24 h
  Log2 50 µM T0070907/DMSO: -0.81
Protein SCAMP3, 24 h
  Log2 50 µM T0070907/DMSO: 0.64
Protein SETDB1, 24 h
  Log2 50 µM T0070907/DMSO: 0.63
Protein SLC26A3, 24 h
  Log2 50 µM T0070907/DMSO: -1.02
Protein SLC39A14, 24 h
  Log2 50 µM T0070907/DMSO: -0.69
Protein STK4, 24 h
  Log2 50 µM T0070907/DMSO: -0.81
Protein SURF6, 24 h
  Log2 50 µM T0070907/DMSO: 0.78
Protein TGOLN2, 24 h
  Log2 50 µM T0070907/DMSO: 0.93
Protein TPD52L1, 24 h
  Log2 50 µM T0070907/DMSO: -1.09
Protein TTR, 24 h
  Log2 50 µM T0070907/DMSO: -1.25
Protein VPS52, 24 h
  Log2 50 µM T0070907/DMSO: 0.77
